Test results reported in patent US11331317B2, “Composition for treating vascular or cardiac valvular calcification, containing thiamine derivative” (KYUNGPOOK NATIONAL UNIVERSITY INDUSTRY-ACADEMIC COOPERATION …, priority 2018, dated 2022).

Tests used:
[1] = system: vascular smooth muscle cells; assay: Quantification of calcium in vascular smooth muscle cells; type: cell-based, cattle; conditions: inorganic phosphate-induced, 100 and 200 μM, corrected by protein amount, p<0.01 vs Vehicle, FIG. 2
Description: The surrounding tissues were removed from the thoracoabdominal aorta isolated from male cattle, and endothelial cells that line blood vessels were removed. The cleaned blood vessels were divided into small fragments, which were then aligned on a culture dish containing Dulbecco's modified Eagle's medium (DMEM, Low Glucose, Thermo Fisher Scientific, USA) supplemented with 20% fetal bovine serum (FBS, Hyclone, Australia). Thereafter, culturing was performed in a cell incubator at 37° C. and 5% CO2 for 3-4 weeks. The vascular smooth muscle cells stretching out around the vascular tissues were subjected to primary culture with media changed every two days. […]
After the induction of calcification by the method in Preparation Example 2 above, the media were removed from the culture dishes, followed by washing with PBS. Then, the cells were decalcified by treatment with 0.6 N HCl at 4° C. for 24 hours, The supernatant was recovered for the use in the quantification of calcium, and proteins were extracted from the cells by using 0.1 N NaOH/0.1% SDS, and quantified by using the BCA method. […]
(ODSAMPLE and ODBLANK represent the OD612nm values of calcium sample and blank (water), respectively; and the slope represents the inclination value on the measured absorbance graph)

[2] = system: vascular smooth muscle cells; assay: Investigation of calcification of vascular smooth muscle cells (silver nitrate staining, optical microscope); type: cell-based, cattle; conditions: inorganic phosphate (Pi)-induced, 100 and 200 μM, cultured 10 days, FIG. 1
Description: The surrounding tissues were removed from the thoracoabdominal aorta isolated from male cattle, and endothelial cells that line blood vessels were removed. The cleaned blood vessels were divided into small fragments, which were then aligned on a culture dish containing Dulbecco's modified Eagle's medium (DMEM, Low Glucose, Thermo Fisher Scientific, USA) supplemented with 20% fetal bovine serum (FBS, Hyclone, Australia). Thereafter, culturing was performed in a cell incubator at 37° C. and 5% CO2 for 3-4 weeks. The vascular smooth muscle cells stretching out around the vascular tissues were subjected to primary culture with media changed every two days.
The vascular smooth muscle cells cultured in Preparation Example 1 above were stabilized by subculture in DMEM (high glucose) supplemented with penicillin/streptomycin antibiotics and 10% FBS. […]
After the induction of calcification by the method in Preparation Example 2 above, the media were removed from the culture dishes, followed by washing with phosphate buffer saline (PBS) three times. […] Thereafter, the cells were washed with primary distilled water two or three times, and then were determined for a degree of calcification through an optical microscope (BX53 microscope, Olympus, Japan).

C57BL/6J mice [3] = assay: In vivo vitamin D3-induced vascular calcification, calcium quantification in aorta; conditions: FIG. 4
Description: (§1) C57BL/6J mice aged 8-9 weeks were grouped into 5 groups of 7 mice each, and four groups (one group being used as a control) underwent the induction of vascular calcification by subcutaneous administration of a high dose (9.0×10^5 IU) of vitamin D3 (Vit. D3) once a day for a total of 3 days.
Additionally, on the 10th day after the administration of vitamin D3, the mice were sacrificed and the abdomen was opened, and then the aorta was separated by cleanly removing surrounding tissues and frozen in liquid nitrogen. The frozen tissues were thawed, weighed after the removal of moisture, and then subjected to decalcification with a 0.6 N HCl solution. The colorimetric Ca quantification kit (Bioassay DICA-500) was used to quantify calcium in the 0.6 N HCl solution used in the decalcification, and the calcium quantification was corrected by using the tissue weight.

C57BL/6J mice [4] = assay: In vivo vitamin D3-induced vascular calcification, Von Kossa staining of aorta; conditions: FIG. 3
Description: as §1
First, on the 10th day after the administration of vitamin D3, the mice were sacrificed and the abdomen was opened, and then the aorta was separated by cleanly removing surrounding tissues of the aorta, and fixed with 4% paraformaldehyde (PFA) for 24 hours. The fixed aorta was washed, immersed in a 5% silver nitrate solution, and incubated under UV light for 30 minutes.

SMILES | calcium amount increased by inorganic phosphate [1] | calcification (black dots) [2] | amount of calcium in the aorta (C57BL/6J mice [3]; 10 mg/kg and 30 mg/kg oral once a day for 13 days, corrected by tissue weight) | degrees of decrease of calcium compared with the DCA group (positive control) (C57BL/6J mice [3]; 10 mg/kg and 30 mg/kg oral) | colored parts of aorta (Von Kossa staining) (C57BL/6J mice [4]; 10 mg/kg and 30 mg/kg oral once a day for 13 days) | degree of recovery compared with the DCA administration group (positive control) (C57BL/6J mice [4]; 30 mg/kg oral)
C=CCSS/C(CCO)=C(/C)N(C=O)Cc1cnc(C)nc1N [allithiamine, thiamine allyl disulfide] | decreased | inhibited |  |  |  | 
CC(=C(CCO)SSCC1CCCO1)N(C=O)Cc1cnc(C)nc1N (stereo in doubt) [fursultiamine, thiamine tetrahydrofurfuryl disulfide] | decreased | inhibited | decreased dose-dependently | excellent | reduced (recovered) dose-dependently | excellent
